According to US9387238B2, “CDCA1 epitope peptides and vaccines containing the same” (OncoTherapy Science, Inc., priority 2008, dated 2016):

How the values were obtained:
[1] = system: peptide-pulsed A24LCL cells; assay: IFN-gamma ELISPOT assay on CTLs induced with CDCA1 peptides; assay type: cell-based, human; conditions: CTLs from HLA-A*2402 positive donor vs peptide-pulsed target cells, compared with the control
From the text: Monocyte-derived dendritic cells (DCs) were used as antigen-presenting cells (APCs) to induce cytotoxic T lymphocyte (CTL) responses against peptides presented on human leukocyte antigen (HLA). DCs were generated in vitro as described elsewhere (Nakahara S et al., Cancer Res 2003 Jul. 15, 63(14): 4112-8). Specifically, peripheral blood mononuclear cells (PBMCs) isolated from a normal volunteer (HLA-A*2402 positive) by Ficoll-Plaque (Pharmacia) solution were separated by adherence to a plastic tissue culture dish (Becton Dickinson) so as to enrich them as the monocyte fraction. The monocyte-enriched population was cultured in the presence of 1000 U/ml of granulocyte-macrophage colony-stimulating factor (GM-CSF) (R&D System) and 1000 U/ml of interleukin (IL)-4 (R&D System) in AIM-V Medium (Invitrogen) containing 2% heat-inactivated autologous serum (AS). After 7 days of culture, the cytokine-induced DCs were pulsed with 20 micro g/ml of each of the synthesized peptides in the presence of 3 micro g/ml of beta 2-microglobulin for 3 hr at 37 degrees C. in AIM-V Medium. The generated cells appeared to express DC-associated molecules, such as CD80, CD83, CD86 and HLA class II, on their cell surfaces (data not shown). These peptide-pulsed DCs were then inactivated by Mitomycin C (MMC) (30 micro g/ml for 30 min) and mixed at a 1:20 ratio with autologous CD8+ T cells, obtained by positive selection with CD8 Positive Isolation Kit (Dynal). These cultures were set up in 48-well plates (Corning); each well contained 1.5×10^4 peptide-pulsed DCs, 3×10^5 CD8+ T cells and 10 ng/ml of IL-7 (R&D System) in 0.5 ml of AIM-V/2% AS medium. Three days later, these cultures were supplemented with IL-2 (CHIRON) to a final concentration of 20 IU/ml. On day 7 and 14, the T cells were further stimulated with the autologous peptide-pulsed DCs. The DCs were prepared each time by the same way described above. CTL was tested against peptide-pulsed A24LCL cells after the 3rd round of peptide stimulation on day 21 (Tanaka H et al., Br J Cancer 2001 Jan. 5, 84(1): 94-9; Umano Y et al., Br J Cancer 2001 Apr. 20, 84(8): 1052-7; Uchida N et al., Clin Cancer Res 2004 Dec. 15, 10(24): 8577-86; Suda T et al., Cancer Sci 2006 May, 97(5): 411-9; Watanabe T et al., Cancer Sci 2005 August, 96(8): 498-506).
(§1) To examine specific CTL activity, interferon (IFN)-gamma enzyme-linked immunospot (ELISPOT) assay and IFN-gamma enzyme-linked immunosorbent assay (ELISA) were performed. Specifically, peptide-pulsed A24LCL (1×10^4/well) was prepared as stimulator cells. Cultured cells in 48 wells were used as responder cells. IFN-gamma ELISPOT assay and IFN-gamma ELISA assay were performed under manufacture procedure.

[2] = system: peptide-pulsed A24LCL cells; assay: IFN-gamma ELISA assay on CTL lines established with CDCA1 peptides; assay type: cell-based, human; conditions: CTL line vs peptide-pulsed target cells, compared with target cells not pulsed
Procedure: CTLs were expanded in culture using the method similar to the one described by Riddell et al. (Walter E A et al., N Engl J Med 1995 Oct. 19, 333(16): 1038-44; Riddell S R et al., Nat Med 1996 February, 2(2): 216-23). A total of 5×10^4 CTLs were suspended in 25 ml of AIM-V/5% AS medium with 2 kinds of human B-lymphoblastoid cell lines, inactivated by MMC, in the presence of 40 ng/ml of anti-CD3 monoclonal antibody (Pharmingen). One day after initiating the cultures, 120 IU/ml of IL-2 were added to the cultures. The cultures were fed with fresh AIM-V/5% AS medium containing 30 IU/ml of IL-2 on days 5, 8 and 11 (Tanaka H et al., Br J Cancer 2001 Jan. 5, 84(1): 94-9; Umano Y et al., Br J Cancer 2001 Apr. 20, 84(8): 1052-7; Uchida N et al., Clin Cancer Res 2004 Dec. 15, 10(24): 8577-86; Suda T et al., Cancer Sci 2006 May, 97(5): 411-9; Watanabe T et al., Cancer Sci 2005 August, 96(8): 498-506).
as §1

[3] = system: target cells pulsed with peptide; assay: IFN-gamma ELISA assay on CTL clone established by limiting dilution; assay type: cell-based, human; conditions: CTL clone by limiting dilution vs peptide-pulsed target cells, compared with the control
Procedure: The dilutions were made to have 0.3, 1, and 3 CTLs/well in 96 round-bottomed micro titer plate (Nalge Nunc International). CTLs were cultured with 1×10^4 cells/well of 2 kinds of human B-lymphoblastoid cell lines, 30 ng/ml of anti-CD3 antibody, and 125 U/ml of IL-2 in a total of 150 micro 1/well of AIM-V Medium containing 5% AS. 50 micro 1/well of IL-2 were added to the medium 10 days later so to reach a final concentration of 125 U/ml IL-2. CTL activity was tested on the 14th day, and CTL clones were expanded using the same method as described above (Uchida N et al., Clin Cancer Res 2004 Dec. 15, 10(24): 8577-86; Suda T et al., Cancer Sci 2006 May, 97(5): 411-9; Watanabe T et al., Cancer Sci 2005 August, 96(8): 498-506).
as §1

[4] = system: COS7 cells transfected with CDCA1 and HLA-A*2402; assay: Specific CTL activity against target cells exogenously expressing CDCA1 and HLA-A*2402; assay type: cell-based
From the text: The cDNA encoding an open reading frame of target genes or HLA-A24 was amplified by PCR. The PCR-amplified product was cloned into pCAGGS vector. The plasmids were transfected into COS7, which is the target genes and HLA-A24-null cell line, using lipofectamine 2000 (Invitrogen) according to the manufacturer's recommended procedures. After 2 days from transfection, the transfected cells were harvested with versene (Invitrogen) and used as the target cells (5×10^4 cells/well) for CTL activity assay.
The established CTL lines raised against these peptides were examined for their ability to recognize target cells that exogenously express CDCA1 and HLA-A*2402 molecule. Specific CTL activity against COS7 cells which transfected with both the full length of CDCA1 and HLA-A*2402 molecule gene (a specific model for the target cells that exogenously express CDCA1 and HLA-A*2402 gene) was tested using the CTL lines raised by corresponding peptide as the effecter cells. COS7 cells transfected with either full length of CDCA1 genes or HLA-A*2402 were prepared as control.

**Q.** Which results are given for “IYMRALQIVY [SEQ ID NO: 11, 10-mer peptide derived from CDCA1, start position 48]”?
**A.** IFN-gamma production of induced CTLs (ELISPOT) [1]: potent IFN-gamma production; IFN-gamma production of CTL line (ELISA) [2]: potent IFN-gamma production

**Q.** Which “IFN-gamma production of induced CTLs (ELISPOT)” value (from here on “IFN-gamma production … (ELISPOT)”) [1] does the source give for “KTEENSFKRL [SEQ ID NO: 4, 10-mer peptide derived from CDCA1, start position 335]” here?
**A.** The value was “potent IFN-gamma production”.

**Q.** What about the “IFN-gamma production of CTL line (ELISA)” value [2] of the same sequence?
**A.** The value was “potent IFN-gamma production”.

**Q.** “MYPHLMEGFL [SEQ ID NO: 2, 10-mer peptide derived from CDCA1, start position 74]” was tested. Which “IFN-gamma production … (ELISPOT)” value [1] did it give?
**A.** Its value is “no specific IFN-gamma production”.

**Q.** What about the “IFN-gamma production of CTL line (ELISA)” value [2] of the same sequence?
**A.** The value was “no specific IFN-gamma production”.

**Q.** How did the “IFN-gamma production … (ELISPOT)” value [1] turn out when “RFLSGIINFI [SEQ ID NO: 3, 10-mer peptide derived from CDCA1, start position 119]” was run?
**A.** Its value is “potent IFN-gamma production”.

**Q.** What about the “IFN-gamma production of CTL line (ELISA)” value [2] of the same sequence?
**A.** The value was “potent IFN-gamma production”.

**Q.** With “RYNVAEIVI [SEQ ID NO: 22, 9-mer peptide derived from CDCA1, start position 8]” as the sequence, how does the “IFN-gamma production … (ELISPOT)” value [1] read?
**A.** The value was “potent IFN-gamma production”.

**Q.** And the “IFN-gamma production of CTL line (ELISA)” value [2]?
**A.** Its value is “potent IFN-gamma production”.

**Q.** With “SFPRYNVAEI [SEQ ID NO: 14, 10-mer peptide derived from CDCA1, start position 5]” as the sequence, how does the “IFN-gamma production … (ELISPOT)” value [1] read?
**A.** Its value is “potent IFN-gamma production”.

**Q.** And the “IFN-gamma production of CTL line (ELISA)” value [2]?
**A.** The value was “potent IFN-gamma production”.

**Q.** What does the source list for “VYGIRLEHF [SEQ ID NO: 23, 9-mer peptide derived from CDCA1, start position 56]”?
**A.** IFN-gamma production of induced CTLs (ELISPOT) [1]: potent IFN-gamma production; IFN-gamma production of CTL line (ELISA) [2]: potent IFN-gamma production; IFN-gamma production of CTL clone (ELISA) [3]: potent IFN-gamma production; specific CTL activity ([4]; CTL clone vs COS7 cells transfected with both CDCA1 and HLA-A*2402): high specific CTL activity; specific CTL activity ([4]; CTL clone vs target cells expressing either HLA-A*2402 or CDCA1 (controls)): no significant specific CTL activity
